Source: US20120190615A1, “METHODS AND COMPOSITIONS FOR INDUCING WEIGHT LOSS” (Sanford-Burnham Medical Research Institute, priority 2011, published 2012)

Assays:
C3H10T1/2 cells = assay: Oxygen consumption / uncoupled respiration of cultured mesenchymal stem cells; type: cell-based, mouse
Description: To determine whether the increased respiration was uncoupled from ATP synthesis, oligomycin-insensitive respiration was first assayed as a measure of uncoupled respiration. Oligomycin inhibits F1 ATP synthetase to suppress only oxidative phosphorylation-associated respiration.

HIB1 cells = assay: Differentiation of HIB1 brown preadipocytes (lipid accumulation, mitochondrial biogenesis); type: cell-based; details: SB408124 1 uM, OX treatment for 5 days
Method: To further investigate the role of OX in BAT differentiation, the effect of OX on the preadipocyte cell line HIB1 was evaluated. […] Expression of genes functioning in lipid metabolism and mitochondrial biogenesis was elevated while the anti-adipogenic factors […], Pref1, and Wnt10 were expressed at very low levels (FIG. 16).
HIB1 cells were stably transfected with lentivirus over-expressing orexin (Len-OX) and compared to vector controls in the absence or presence of exogenous OX (100 nM), Cells were cultured for 7 days in the absence of differentiation medium and stained with Oil Red O. By day 6 of adipogenic differentiation, orexin-expressing cells had undergone normal BAT differentiation as scored by lipid accumulation.
Brown fat morphological defects seen in both adult and newborn OXR1 KO mice were similar to those observed in OX KO mice. […] To examine the cellular and molecular consequences of OXR1 depletion, lentiviral vectors were used to express a short hairpin (sh) shRNA targeting OXR1 (shOXR1; Open Biosystems, Inc., catalog no. RMM4431-98766481) or a scrambled shRNA control (Open Biosystems, Inc., catalog no. RHS4346) in HIB1 mesenchymal cells. […] After 5 days of differentiation, cultures expressing the scrambled shRNA control had undergone brown fat differentiation as scored by Oil Red O staining and shown in FIG. 18. […]

[1] = test system: primary brown preadipocytes; assay: Differentiation of primary brown preadipocytes (Oil Red O); type: cell-based, mice; details: 3 days BMP7 or 100 nM OX, then adipogenic medium
Description: To assess differentiation of primary brown adipocytes, iBAT preadipocytes were isolated from 1-day-old mice and then differentiated in the presence of OX. Differentiation was confirmed by Oil Red O staining which visualizes lipid accumulation (FIG. 7). […] Taken together. OX activates a full program of brown fat adipogenesis by suppressing adipogenic inhibitors, including BAT regulators, elevating mitochondrial biogenesis and oxygen consumption, and inducing uncoupled respiration.
To investigate whether lack of OXR1 impaired BAT differentiation potential, primary brown preadipocytes from OXR1 knockout mice were isolated and differentiated. Generation of wild-type primary brown preadipocyte cell lines was derived from newborn wild-type mice as described previously by Klein et al. (Bioessays, 24: 382-388, 2002), which is hereby incorporated by reference in its entirety. Brown preadipocytes isolated from C57BL-6 mice served as positive control. All cell lines were maintained in Dulbecco's modified […] medium (DMEM), high glucose, supplemented with 10% FBS at 37° C. in a 5% CO2 environment. To induce adipogenesis, the cells were treated for 3 days with either BMP7 or 100 nM OX, at which time they were confluent. Cells were then incubated in adipogenic medium containing 0.125 mM indomethaein, […] dexamethazone, and […] 3-isobutyl-1-methyxanthine (IBMX) supplemented by 20 nM insulin as described by Tseng et al., (Nature, 454: 1000-1004, 2008) which is hereby incorporated by reference in its entirety.

## N#CC(C#N)=NNc1ccc(OC(F)(F)F)cc1 [FCCP, reference compound]
C3H10T1/2 cells; in the presence of FCCP
  oxygen consumption of unstimulated, differentiated cells, increase: 6 fold

## Cc1cc(NC(=O)Nc2ccc(N(C)C)cc2)c2cc(F)cc(F)c2n1 [SB408124, reference compound]
HIB1 cells
  OX-dependent mitochondrial biogenesis: blunted

## CC[C@H]1/C=C/C=C/C[C@@H](C)[C@H](O)[C@@](C)(O)C(=O)[C@@H](C)[C@H](O)[C@@H](C)C(=O)[C@@H](C)[C@H](O)[C@@H](C)/C=C/C(=O)O[C@@H]2[C@H](C)[C@H](CC1)O[C@]1(CC[C@H](C)[C@H](C[C@@H](C)O)O1)[C@H]2C [oligomycin, reference compound]
C3H10T1/2 cells; absence of OX
  respiration of unstimulated differentiated cells: completely suppressed respiration

B1: BMP-7: recombinant human BMP-7 (cat. No. 4579, BioVision), a potent inducer of BAT differentiation (protein, UniProt P18075 293-431, looked up)
Bone morphogenetic protein 7: STGSKQRSQNRSKTPKNQEALRMANVAENSSSDQRQACKKHELYVSFRDLGWQDWIIAPEGYAAYYCEGECAFPLNSYMNATNHAIVQTLVHFINPETVPKPCCAPTQLNAISVLYFDDSSNVILKKYRNMVVRACGCH
C3H10T1/2 cells; oligomycin
  oxygen consumption of treated cells in the presence of oligomycin: efficiently consumed oxygen
[1]
  differentiation of wild-type preadipocytes based on lipid accumulation: enhanced differentiation
